Patent publication US8329681B2, “Methods and compositions for the efficient delivery of therapeutic agents to cells and animals” (University of Massachusetts, priority 2005, dated 2012)

How the values were obtained:
FL83B cells = assay: Cell Titer 96 AQueous One Solution (MTS) cytotoxicity assay; format: cell-based, rat; settings: liposomal formulation alone or in combination with DOPE and DOPC as co-lipid
Experimental: (§1) Alternatively, the cytotoxicity of the lipids was measured using the Cell Titer 96® AQueous One Solution Cell Proliferation Assay. The Cell Titer 96® AQueous One Solution Reagent contains a tetrazolium compound [3-(4,5-dimethylthiazol-2-yl)-5-(3-carboxymethoxyphenyl)-2(4-sulfophenyl)-2H-tetrazolium, inner salt; MTS^17] and an electron coupling reagent (phenazine ethosulfate; PES). The cytotoxicity assay was performed in 96 well plates by maintaining the ratio of number of cells to amount of cationic lipid constant as in transfection experiments. MTS was added 24 hours after transfection. Cell Titer 96® AQueous One Solution Reagent (20 ul) was pipetted into each well of the 96-well assay plate containing the samples in 100 μl of culture medium. In case of HeLa cells the plates were incubated for 2 hours, whereas for FL83B cells, plates were incubated for 4 hours at 37° C. in a humidified, 5% CO2 atmosphere. Absorbance was then recorded at 490 nm.
(§2) In a second experiment, FL83B and HeLa cells were plated on 96 well plate 18 hours prior to transfection. Then, liposome was added to each well and incubated for 24 hours. Thereafter, Cell Titer 96® AQueous One Solution Reagent was added and incubated for 4 hours. The MTS tetrazolium compound (Owen's reagent) is bioreduced by viable cells into a colored formazan product that is soluble in tissue culture […]. The absorbance of the formazan was measured at 490 nm with a 96 well plate reader.

HeLa cells = assay: as above; format: cell-based, human; settings: liposomal formulation alone or in combination with DOPE and DOPC as co-lipid
Experimental: as §1, §2

CDK9 expression = assay: Liposome-mediated CDK9 siRNA gene knock-down in FL83B cells, real-time RT-PCR; format: cell-based, rat; settings: CDK9 siRNA transfected with liposome
Experimental: Total RNA was extracted from tissues or cultured cells using Trizol (Invitrogen, Carlsbad, Calif.), and real-time RT-PCR for CDK9 and GAPDH mRNA quantification was carried out using 200 ng of total RNA and the QuantiTect SYBR Green RT-PCR Kit (Qiagen, Valencia, Calif.) according to the manufacturer's instructions. The ratio of CDK9 and GAPDH mRNA was calculated and expressed as a group average relative to the control group. The specific probe for detection of CDK9 mRNA levels was designed to the following regions of the CDK9 mRNA ORF, the forward primer 5′ TCGGACCAA AGCCTCACCGTATAA 3′, the reverse primer 5′ […] TTG 3′
FL83B were cultured in F-12K medium (ATCC, Manassas, Va.) with 10% fetal bovine serum at 37° C. in 5% CO2. FL83B were plated on 6-well plates at 70% confluency 24 hours before transfection. […] Gene silencing was monitored by Real-time RT-PCR.
The complexes of CDK9 siRNA (2 μg) and DOATP-Chol (10 μg) or DMTAP-Chol (10 μg) or Transfast-Chol […] were added to Opti-MEM I medium and cells were incubated in the mixture for 6 hr. […] RNA was extracted from cells using Trizol Reagent and real-time RT-PCR for CDK9 and GAPDH mRNA quantification was carried out using 200 ng of total RNA and the QuantiTect SYBR Green RT-PCR Kit. The ratio of CDK9 and GAPDH mRNA was calculated and expressed as a group average relative to the control group. […]

[1] = Tissue distribution of Cy3-labeled siRNA by fluorescence microscopy; format: in vivo, BALB/c mice; settings: 24 h after injection
Experimental: Freshly excised tissues were frozen in liquid nitrogen and mounted for crytostat sectioning. Sections of 5 μm were fixed with in 100% acetone at 4° C. for 10 min, air-dried and mounted in Vectashild with DAPI (Vector Laboratories, Inc. Burlingame, Calif.). Slides were viewed and recorded under Leica confocal microscope.
Male BALB/c mice, 6-8 weeks of age and weighting 20-22 g, were purchased form the Jackson Laboratory (Bar Harbor, Me.). Synthetic siRNA were delivered in vivo using following method. For each mice 25 μg of siRNA in 100 μl of HEPES Buffered Saline (20 mM HEPES, 150 mM NaCl, pH 7.4) was transferred into a sterile tube. In a separate sterile tube 125 μg of liposome was mixed with 200 μl HEPES Buffered Saline. The siRNA solution was transferred to the tube containing liposome solution and then incubated at room temperature for 20 minutes. 200 μl of the complexes was injected via the tail vein, using a 1-ml syringe and 27-gauge needle. The injection was repeated 4 and 8 h later. Control mice were injected with an equal volume of liposome. At 24 h after the last injection, the mice were sacrificed and tissues were harvested for further analysis. […]
The tissue distribution patterns of siRNA delivered in BALB/c mice using DOTAP-Chol were assessed by fluorescence microscopy.

CCCCCCCCC=CCCCCCCCC(=O)OC(COC(=O)CCC(=O)OC1CCC2(C)C(=CCC3C2CCC2(C)C(C(C)CCCC(C)C)CCC32)C1)C[N+](C)(C)C.[I-] (stereo not shown) [Lipid 8, N,N,N-Trimethyl-N-[2-(9(Z)-octadecanoyloxy),3-succinyloxy(4-cholesteryloxy)-propyl]ammonium iodide]
cytotoxicity as compared to a control (FL83B cells): non-toxic | cytotoxicity as compared to a control (HeLa cells): non-toxic | knockdown of CDK9 expression (CDK9 expression): 67% | tissues with the highest fluorescent intensity of delivered Cy3-labeled siRNA [1]: the spleen, the lung and the liver
